Measurements taken from PubChem BioAssay (NCI).
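48-hour exposure; five concentrations; linearly interpolated endpoints. At the GI50, growth is halved. Definition used: TGI = concentration required for complete inhibition of growth.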

Legend:
Assay in all cases: NCI-60 cell line screen, 48 h
NCI-H23 lung = test system: NCI-H23 lung
ACHN renal = test system: ACHN renal
CAKI-1 renal = test system: CAKI-1 renal
SNB-75 CNS = test system: SNB-75 CNS
HS 578T breast = test system: HS 578T breast
HCT-116 colon = test system: HCT-116 colon
SR leukemia = test system: SR leukemia
PC-3 prostate = test system: PC-3 prostate
MDA-MB-435 = test system: MDA-MB-435
UO-31 renal = test system: UO-31 renal
U251 CNS = test system: U251 CNS
M14 melanoma = test system: M14 melanoma
HL-60(TB) leukemia = test system: HL-60(TB) leukemia
DU-145 prostate = test system: DU-145 prostate
SF-295 CNS = test system: SF-295 CNS
SF-268 CNS = test system: SF-268 CNS
RPMI-8226 leukemia = test system: RPMI-8226 leukemia
NCI-H226 lung = test system: NCI-H226 lung
KM12 colon = test system: KM12 colon
SK-MEL-5 melanoma = test system: SK-MEL-5 melanoma
HOP-92 NSCLC = test system: HOP-92 NSCLC
HOP-62 NSCLC = test system: HOP-62 NSCLC
T-47D breast = test system: T-47D breast
RXF 393 renal = test system: RXF 393 renal
LOX IMVI melanoma = test system: LOX IMVI melanoma
OVCAR-4 ovarian = test system: OVCAR-4 ovarian
NCI/ADR-RES ovarian = test system: NCI/ADR-RES ovarian
HCT-15 colon = test system: HCT-15 colon
COLO 205 colon = test system: COLO 205 colon
MOLT-4 leukemia = test system: MOLT-4 leukemia
SF-539 CNS = test system: SF-539 CNS
MDA-MB-231 breast = test system: MDA-MB-231 breast
K-562 leukemia = test system: K-562 leukemia
HT29 colon = test system: HT29 colon
SK-MEL-2 melanoma = test system: SK-MEL-2 melanoma
SW-620 colon = test system: SW-620 colon
IGROV1 ovarian = test system: IGROV1 ovarian
786-0 renal = test system: 786-0 renal
SNB-19 CNS = test system: SNB-19 CNS
UACC-257 melanoma = test system: UACC-257 melanoma
OVCAR-8 ovarian = test system: OVCAR-8 ovarian
EKVX NSCLC = test system: EKVX NSCLC
UACC-62 melanoma = test system: UACC-62 melanoma
SK-MEL-28 melanoma = test system: SK-MEL-28 melanoma
NCI-H460 lung = test system: NCI-H460 lung
BT-549 breast = test system: BT-549 breast
CCRF-CEM leukemia = test system: CCRF-CEM leukemia
HCC-2998 colon = test system: HCC-2998 colon
MCF7 breast = test system: MCF7 breast
TK-10 renal = test system: TK-10 renal
SK-OV-3 ovarian = test system: SK-OV-3 ovarian
A549 NSCLC = test system: A549 NSCLC
OVCAR-5 ovarian = test system: OVCAR-5 ovarian
A498 renal = test system: A498 renal
NCI-H522 lung = test system: NCI-H522 lung
SN12C renal = test system: SN12C renal
OVCAR-3 ovarian = test system: OVCAR-3 ovarian
MALME-3M melanoma = test system: MALME-3M melanoma

Molecule `OC(c1ccc(C(F)(F)F)cc1)C(F)(F)c1nc2ccccc2o1` (stereo not given) has a TGI (NCI-H23 lung) of over 100 µM, a TGI (ACHN renal) of over 100 µM and a TGI (CAKI-1 renal) of over 100 µM. It also gave a TGI (SNB-75 CNS) of over 100 µM, a TGI (HS 578T breast) of over 100 µM and a TGI (HCT-116 colon) of over 100 µM. For the same molecule, the TGI (SR leukemia) was over 100 µM, the TGI (PC-3 prostate) was over 100 µM and the TGI (MDA-MB-435) was over 100 µM. For the same molecule, the TGI (UO-31 renal) was over 100 µM, the TGI (U251 CNS) was over 100 µM and the TGI (M14 melanoma) was over 100 µM. It also gave a TGI (HL-60(TB) leukemia) of over 100 µM, a TGI (DU-145 prostate) of over 100 µM and a TGI (SF-295 CNS) of over 100 µM. It also gave a TGI (SF-268 CNS) of over 100 µM, a TGI (RPMI-8226 leukemia) of over 100 µM and a TGI (NCI-H226 lung) of over 100 µM. The TGI (KM12 colon) was over 100 µM, the TGI (SK-MEL-5 melanoma) was over 100 µM and the TGI (HOP-92 NSCLC) was over 100 µM. It also gave a TGI (HOP-62 NSCLC) of over 100 µM, a TGI (T-47D breast) of over 100 µM and a TGI (RXF 393 renal) of over 100 µM. It also gave a TGI (LOX IMVI melanoma) of over 100 µM, a TGI (OVCAR-4 ovarian) of over 100 µM and a TGI (NCI/ADR-RES ovarian) of over 100 µM. The TGI (HCT-15 colon) was over 100 µM, the TGI (COLO 205 colon) was over 100 µM and the TGI (MOLT-4 leukemia) was over 100 µM. It also gave a TGI (SF-539 CNS) of over 100 µM, a TGI (MDA-MB-231 breast) of over 100 µM and a TGI (K-562 leukemia) of over 100 µM. It also gave a TGI (HT29 colon) of over 100 µM, a TGI (SK-MEL-2 melanoma) of over 100 µM and a TGI (SW-620 colon) of over 100 µM. The TGI (IGROV1 ovarian) was over 100 µM, the TGI (786-0 renal) was over 100 µM and the TGI (SNB-19 CNS) was over 100 µM. For the same molecule, the TGI (UACC-257 melanoma) was over 100 µM, the TGI (OVCAR-8 ovarian) was over 100 µM and the TGI (EKVX NSCLC) was over 100 µM. For the same molecule, the TGI (UACC-62 melanoma) was over 100 µM, the TGI (SK-MEL-28 melanoma) was over 100 µM and the TGI (NCI-H460 lung) was over 100 µM. For the same molecule, the TGI (BT-549 breast) was over 100 µM, the TGI (CCRF-CEM leukemia) was over 100 µM and the TGI (HCC-2998 colon) was over 100 µM. The TGI (MCF7 breast) was over 100 µM, the TGI (TK-10 renal) was over 100 µM and the TGI (SK-OV-3 ovarian) was over 100 µM.
`O=C1C=CC(=Nc2cc(Br)c(O)c(Br)c2)C=C1` gave a GI50 (NCI-H23 lung) of 16 µM, a TGI (NCI-H23 lung) of 38.3 µM and a GI50 (ACHN renal) of 18.9 µM. The TGI (ACHN renal) was 46.3 µM, the GI50 (CAKI-1 renal) was 26.4 µM and the TGI (CAKI-1 renal) was 68 µM. For the same molecule, the GI50 (SNB-75 CNS) was 27.5 µM, the TGI (SNB-75 CNS) was over 100 µM and the GI50 (HS 578T breast) was 32.1 µM. The TGI (HS 578T breast) was over 100 µM, the GI50 (HCT-116 colon) was 11.5 µM and the TGI (HCT-116 colon) was 26.3 µM. For the same molecule, the GI50 (SR leukemia) was 2130 nM, the TGI (SR leukemia) was over 100 µM and the GI50 (MDA-MB-435) was 18.9 µM. It also gave a TGI (MDA-MB-435) of over 100 µM, a GI50 (UO-31 renal) of 22 µM and a TGI (UO-31 renal) of over 100 µM. For the same molecule, the GI50 (U251 CNS) was 17.8 µM, the TGI (U251 CNS) was 99.1 µM and the GI50 (M14 melanoma) was 23.9 µM. For the same molecule, the TGI (M14 melanoma) was over 100 µM, the GI50 (HL-60(TB) leukemia) was 7.65 µM and the TGI (HL-60(TB) leukemia) was 51.2 µM. The GI50 (DU-145 prostate) was 30 µM, the TGI (DU-145 prostate) was over 100 µM and the GI50 (SF-295 CNS) was 27 µM. It also gave a TGI (SF-295 CNS) of 96.2 µM, a GI50 (SF-268 CNS) of 24.6 µM and a TGI (SF-268 CNS) of over 100 µM. It also gave a GI50 (RPMI-8226 leukemia) of 11.9 µM, a TGI (RPMI-8226 leukemia) of over 100 µM and a GI50 (NCI-H226 lung) of 22.2 µM. The TGI (NCI-H226 lung) was 59.6 µM, the GI50 (KM12 colon) was 16.9 µM and the TGI (KM12 colon) was 42.5 µM. For the same molecule, the GI50 (SK-MEL-5 melanoma) was 15.6 µM, the TGI (SK-MEL-5 melanoma) was 32.1 µM and the GI50 (HOP-92 NSCLC) was 39.6 µM. The TGI (HOP-92 NSCLC) was over 100 µM, the GI50 (HOP-62 NSCLC) was 28.4 µM and the TGI (HOP-62 NSCLC) was 76.1 µM. The GI50 (T-47D breast) was 12.4 µM, the TGI (T-47D breast) was 41.4 µM and the GI50 (RXF 393 renal) was 12.5 µM. It also gave a TGI (RXF 393 renal) of 63.8 µM, a GI50 (LOX IMVI melanoma) of 21.6 µM and a TGI (LOX IMVI melanoma) of 66.6 µM. It also gave a GI50 (OVCAR-4 ovarian) of 43 µM, a TGI (OVCAR-4 ovarian) of over 100 µM and a GI50 (NCI/ADR-RES ovarian) of 47.2 µM. It also gave a TGI (NCI/ADR-RES ovarian) of over 100 µM, a GI50 (HCT-15 colon) of 16.5 µM and a TGI (HCT-15 colon) of 43.8 µM. The GI50 (A549 NSCLC) was 42.6 µM, the TGI (A549 NSCLC) was over 100 µM and the GI50 (COLO 205 colon) was 20 µM. It also gave a TGI (COLO 205 colon) of 52 µM, a GI50 (MOLT-4 leukemia) of 8.71 µM and a TGI (MOLT-4 leukemia) of over 100 µM. For the same molecule, the GI50 (OVCAR-5 ovarian) was 24.4 µM, the TGI (OVCAR-5 ovarian) was 60.5 µM and the GI50 (A498 renal) was 26.5 µM. For the same molecule, the TGI (A498 renal) was over 100 µM, the GI50 (SF-539 CNS) was 21.5 µM and the TGI (SF-539 CNS) was 64.1 µM. The GI50 (MDA-MB-231 breast) was 31.5 µM, the TGI (MDA-MB-231 breast) was over 100 µM and the GI50 (K-562 leukemia) was 5.83 µM. For the same molecule, the TGI (K-562 leukemia) was over 100 µM, the GI50 (HT29 colon) was 18 µM and the TGI (HT29 colon) was 35 µM. It also gave a GI50 (SK-MEL-2 melanoma) of 23 µM, a TGI (SK-MEL-2 melanoma) of 75.2 µM and a GI50 (SW-620 colon) of 15.8 µM. For the same molecule, the TGI (SW-620 colon) was over 100 µM, the GI50 (IGROV1 ovarian) was 22.7 µM and the TGI (IGROV1 ovarian) was 68 µM. It also gave a GI50 (786-0 renal) of 23.6 µM, a TGI (786-0 renal) of 60.6 µM and a GI50 (SNB-19 CNS) of 44.2 µM. For the same molecule, the TGI (SNB-19 CNS) was over 100 µM, the GI50 (UACC-257 melanoma) was 32.5 µM and the TGI (UACC-257 melanoma) was over 100 µM. For the same molecule, the GI50 (OVCAR-8 ovarian) was 14.9 µM, the TGI (OVCAR-8 ovarian) was over 100 µM and the GI50 (EKVX NSCLC) was 52 µM. The TGI (EKVX NSCLC) was over 100 µM, the GI50 (UACC-62 melanoma) was 25.6 µM and the TGI (UACC-62 melanoma) was 93.2 µM. The GI50 (SK-MEL-28 melanoma) was 31.7 µM, the TGI (SK-MEL-28 melanoma) was over 100 µM and the GI50 (NCI-H460 lung) was 27.2 µM. It also gave a TGI (NCI-H460 lung) of 84.9 µM, a GI50 (NCI-H522 lung) of 3.96 µM and a TGI (NCI-H522 lung) of 28.8 µM. For the same molecule, the GI50 (SN12C renal) was 25.6 µM, the TGI (SN12C renal) was 84.1 µM and the GI50 (BT-549 breast) was 16.4 µM. It also gave a TGI (BT-549 breast) of 74.8 µM, a GI50 (CCRF-CEM leukemia) of 3.53 µM and a TGI (CCRF-CEM leukemia) of over 100 µM. It also gave a GI50 (HCC-2998 colon) of 17.5 µM, a TGI (HCC-2998 colon) of 34.6 µM and a GI50 (OVCAR-3 ovarian) of 19.7 µM. It also gave a TGI (OVCAR-3 ovarian) of over 100 µM, a GI50 (MCF7 breast) of 7.87 µM and a TGI (MCF7 breast) of over 100 µM. For the same molecule, the GI50 (MALME-3M melanoma) was 18.4 µM, the TGI (MALME-3M melanoma) was over 100 µM and the GI50 (TK-10 renal) was 32.9 µM. It also gave a TGI (TK-10 renal) of over 100 µM, a GI50 (SK-OV-3 ovarian) of 52.8 µM and a TGI (SK-OV-3 ovarian) of over 100 µM.
